Measurements: US11542273B2, “Amide compound having bet proteolysis-inducing action and medicinal application thereof” (MITSUBISHI TANABE PHARMA CORPORATION, priority 2018, dated 2023)

Legend:
[1] = test system: human prostate cancer LNCaP cells; assay: Cytotoxic action on cancer cells (WST-8, 96 hr); assay type: cell-based; settings: Homo sapiens, LNCaP, 96 h, read-out: LNCaP cytotoxic activity: IC50
In short: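 10% FBS/RPMI1640; overnight plating, 37° C/5% CO2; compound from DMSO diluted in medium; WST-8 viable count vs no-compound control; IC50 by two-point linear interpolation around 50% survival.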

BRD4 protein = BRD4 protein (Homo sapiens (Human), UniProt O60885); assay: BRD4 protein degradation inducing action in cancer cells (immunofluorescence, Operetta); assay type: cell-based; settings: LNCaP cells, 6 hr treatment, fluorescence intensity
In short: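 DC50 = compound concentration reducing BRD4 immunofluorescence to 50% of untreated cells, interpolated between the two flanking concentrations. Treatment: LNCaP cells, 6 hr, 10% FBS/RPMI1640, 37° C. Cells were then fixed, permeabilized, stained with anti-BRD4 and Alexa Fluor 488 or 546 secondaries, and imaged.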

Row | SMILES | DC50 (BRD4 protein) [nM] | IC50 [1] [nM]
1 | Cc1ncsc1-c1ccc([C@H](C)NC(=O)[C@@H]2C[C@@H](O)CN2C(=O)[C@@H](NC(=O)C2(OCCCc3ccc(C4=N[C@@H](C)c5nnc(C)n5-c5sc(C)c(C)c54)cc3)CC2)C(C)(C)C)cc1 [Example 199, (2S,4R)-1-[(2S)-3,3-dimethyl-2-{[1-(3-{4-[(6S)-2,3,6,9-tetramethyl-6H-thieno[3,2-f][1,2,4]triazolo[4,3-a] [1,4]diazepin-4-yl]phenyl}propoxy)cyclopropane-1-carbonyl]amino}butanoyl]-4-hydroxy-N-{(1S)-1-[4-(4-methyl-1,3-thiazol-5-yl)phenyl]ethyl}pyrrolidine-2-carboxamide] | 0.55 | 0.64
2 | COC(=O)C[C@@H]1N=C(c2ccc(N3CCc4cc(OCC(=O)N[C@H](C(=O)N5C[C@H](O)C[C@H]5C(=O)N[C@@H](C)c5ccc(-c6scnc6C)cc5)C(C)(C)C)ccc43)cc2)c2c(sc(C)c2C)-n2c(C)nnc21 [Example 151, methyl [(6S)-4-(4-{5-[2-({(2S)-1-[(2S,4R)-4-hydroxy-2-({(1S)-1-[4-(4-methyl-1,3-thiazol-5-yl)phenyl]ethyl}carbamoyl)pyrrolidin-1-yl]-3,3-dimethyl-1-oxobutan-2-yl}amino)-2-oxoethoxy]-2,3-dihydro-1H-indol-1-yl}phenyl)-2,3,9-trimethyl-6H-thieno[3,2-f][1,2,4]triazolo[4,3-a] [1,4]diazepin-6-yl]acetate] | 0.042 | 0.058
3 | COC(=O)C[C@@H]1N=C(c2ccc(-c3cc(C(=O)N[C@H](C(=O)N4C[C@H](O)C[C@H]4C(=O)N[C@@H](C)c4ccc(-c5scnc5C)cc4)C(C)(C)C)cc(F)c3F)cc2)c2c(sc(C)c2C)-n2c(C)nnc21 [Example 173, methyl {(6S)-4-[2′,3′-difluoro-5′-({(2S)-1-[(2S,4R)-4-hydroxy-2-({(1S)-1-[4-(4-methyl-1,3-thiazol-5-yl)phenyl]ethyl}carbamoyl)pyrrolidin-1-yl]-3,3-dimethyl-1-oxobutan-2-yl}carbamoyl)[1,1′-biphenyl]-4-yl]-2,3,9-trimethyl-6H-thieno[3,2-f][1,2,4]triazolo[4,3-a][1,4]diazepin-6-yl}acetate] | 0.53 | 0.53
4 | Cc1ncsc1-c1ccc([C@H](C)NC(=O)[C@@H]2C[C@@H](O)CN2C(=O)[C@@H](NC(=O)CCCCc2ccc(C3=N[C@@H](C)c4nnc(C)n4-c4sc(C)c(C)c43)cc2)C(C)(C)C)cc1 [Example 192, (2S,4R)-1-{(2S)-3,3-dimethyl-2-[(5-{4-[(6S)-2,3,6,9-tetramethyl-6H-thieno[3,2-f][1,2,4]triazolo[4,3-a] [1,4]diazepin-4-yl]phenyl}pentanoyl)amino]butanoyl}-4-hydroxy-N-{(1S)-1-[4-(4-methyl-1,3-thiazol-5-yl)phenyl]ethyl}pyrrolidine-2-carboxamide] | 0.77 | 0.46
5 | CNC(=O)C[C@@H]1N=C(c2ccc(-c3ccc(C(=O)N[C@H](C(=O)N4C[C@H](O)C[C@H]4C(=O)N[C@@H](C)c4ccc(-c5scnc5C)cc4)C(C)(C)C)cc3F)cc2)c2c(sc(C)c2C)-n2c(C)nnc21 [Example 206, (2S,4R)-1-{(2S)-2-[(2-fluoro-4′-{(6S)-2,3,9-trimethyl-6-[2-(methylamino)-2-oxoethyl]-6H-thieno[3,2-f] [1,2,4]triazolo[4,3-a][1,4]diazepin-4-yl}[1,1′-biphenyl]-4-carbonyl)amino]-3,3-dimethylbutanoyl}-4-hydroxy-N-{(1S)-1-[4-(4-methyl-1,3-thiazol-5-yl)phenyl]ethyl}pyrrolidine-2-carboxamide] | 0.73 | 0.68
6 | COC(=O)C[C@@H]1N=C(c2ccc(N3CC[C@H](C(=O)NCCOc4ccc5oc(C(=O)N[C@H](C(=O)N6C[C@H](O)C[C@H]6C(=O)N[C@@H](C)c6ccc(-c7scnc7C)cc6)C(C)(C)C)cc5c4)C3)cc2)c2c(sc(C)c2C)-n2c(C)nnc21 [Example Compound 68, methyl [(6S)-4-(4-{(3S)-3-[(2-{[2-({(2S)-1-[(2S,4R)-4-hydroxy-2-({(1S)-1-[4-(4-methyl-1,3-thiazol-5-yl)phenyl]ethyl}carbamoyl)pyrrolidin-1-yl]-3,3-dimethyl-1-oxobutan-2-yl}carbamoyl)-1-benzofuran-5-yl]oxy}ethyl)carbamoyl]pyrrolidin-1-yl}phenyl)-2,3,9-trimethyl-6H-thieno[3,2-f][1,2,4]triazolo[4,3-a][1,4]diazepin-6-yl]acetate] | 0.46 | 0.52
7 | COC(=O)C[C@@H]1N=C(c2ccc(-n3ccc(C(=O)N[C@H](C(=O)N4C[C@H](O)C[C@H]4C(=O)N[C@@H](C)c4ccc(-c5scnc5C)cc4)C(C)(C)C)n3)cc2)c2c(sc(C)c2C)-n2c(C)nnc21 [Example 172, methyl [(6S)-4-{4-[3-({(2S)-1-[(2S,4R)-4-hydroxy-2-({(1S)-1-[4-(4-methyl-1,3-thiazol-5-yl)phenyl]ethyl}carbamoyl)pyrrolidin-1-yl]-3,3-dimethyl-1-oxobutan-2-yl}carbamoyl)-1H-pyrazol-1-yl]phenyl}-2,3,9-trimethyl-6H-thieno[3,2-f][1,2,4]triazolo[4,3-a][1,4]diazepin-6-yl]acetate] | 0.37 | 0.36
8 | COC(=O)C[C@@H]1N=C(c2ccc(-c3ccc(C(=O)N[C@H](C(=O)N4C[C@H](O)C[C@H]4C(=O)NCc4ccc(-c5scnc5C)cc4)C(C)(C)C)cc3F)cc2)c2c(sc(C)c2C)-n2c(C)nnc21 [Example 189, methyl {(6S)-4-[2′-fluoro-4′-({(2S)-1-[(2S,4R)-4-hydroxy-2-({[4-(4-methyl-1,3-thiazol-5-yl)phenyl]methyl}carbamoyl)pyrrolidin-1-yl]-3,3-dimethyl-1-oxobutan-2-yl}carbamoyl) [1,1′-biphenyl]-4-yl]-2,3,9-trimethyl-6H-thieno [3,2-f][1,2,4]triazolo [4,3-a][1,4]diazepin-6-yl}acetate] | 0.44 | 0.17

The next lines start with results.

Row | DC50 (BRD4 protein) [nM] | SMILES | IC50 [1] [nM]
9 | 0.77 | COC(=O)C[C@@H]1N=C(c2ccc(-c3ccc(C(=O)N[C@@H](C)C(=O)N[C@H](C(=O)N4C[C@H](O)C[C@H]4C(=O)N[C@@H](C)c4ccc(-c5scnc5C)cc4)C(C)(C)C)cc3)cc2)c2c(sc(C)c2C)-n2c(C)nnc21 [Example Compound 91, methyl [(6S)-4-(4′-{[(2S)-1-({(2S)-1-[(2S,4R)-4-hydroxy-2-({(1S)-1-[4-(4-methyl-1,3-thiazol-5-yl)phenyl]ethyl}carbamoyl)pyrrolidin-1-yl]-3,3-dimethyl-1-oxobutan-2-yl}amino)-1-oxopropan-2-yl]carbamoyl}[1,1′-biphenyl]-4-yl)-2,3,9-trimethyl-6H-thieno[3,2-f] [1,2,4]triazolo[4,3-a][1,4]diazepin-6-yl]acetate] | 0.54
10 | 0.091 | COC(=O)C[C@@H]1N=C(c2ccc(-c3ccc(SCC(=O)N[C@H](C(=O)N4C[C@H](O)C[C@H]4C(=O)N[C@@H](C)c4ccc(-c5scnc5C)cc4)C(C)(C)C)cc3)cc2)c2c(sc(C)c2C)-n2c(C)nnc21 [Example 53, methyl [(6S)-4-(4′-{[2-({(2S)-1-[(2S,4R)-4-hydroxy-2-({(1S)-1-[4-(4-methyl-1,3-thiazol-5-yl)phenyl]ethyl}carbamoyl)pyrrolidin-1-yl]-3,3-dimethyl-1-oxobutan-2-yl}amino)-2-oxoethyl]sulfanyl}[1,1′-biphenyl]-4-yl)-2,3,9-trimethyl-6H-thieno[3,2-f][1,2,4]triazolo[4,3-a] [1,4]diazepin-6-yl]acetate] | 0.2
11 | 0.28 | COC(=O)C[C@@H]1N=C(c2ccc(-c3cccc4c3CN(CC(=O)N[C@H](C(=O)N3C[C@H](O)C[C@H]3C(=O)N[C@@H](C)c3ccc(-c5scnc5C)cc3)C(C)(C)C)CC4)cc2)c2c(sc(C)c2C)-n2c(C)nnc21 [Example 147, methyl [(6S)-4-(4-{2-[2-({(2S)-1-[(2S,4R)-4-hydroxy-2-({(1S)-1-[4-(4-methyl-1,3-thiazol-5-yl)phenyl]ethyl}carbamoyl)pyrrolidin-1-yl]-3,3-dimethyl-1-oxobutan-2-yl}amino)-2-oxoethyl]-1,2,3,4-tetrahydroisoquinolin-8-yl}phenyl)-2,3,9-trimethyl-6H-thieno[3,2-f] [1,2,4]triazolo[4,3-a][1,4]diazepin-6-yl]acetate] | 0.34
12 | 0.11 | COC(=O)C[C@@H]1N=C(c2ccc(-c3ccc(OCC(=O)N[C@H](C(=O)N4C[C@H](O)C[C@H]4C(=O)N[C@@H](C)c4ccc(-c5scnc5C)cc4)C(C)(C)C)nc3)cc2)c2c(sc(C)c2C)-n2c(C)nnc21 [Example 63, methyl [(6S)-4-(4-{6-[2-({(2S)-1-[(2S,4R)-4-hydroxy-2-({(1S)-1-[4-(4-methyl-1,3-thiazol-5-yl)phenyl]ethyl}carbamoyl)pyrrolidin-1-yl]-3,3-dimethyl-1-oxobutan-2-yl}amino)-2-oxoethoxy]pyridin-3-yl}phenyl)-2,3,9-trimethyl-6H-thieno[3,2-f][1,2,4]triazolo[4,3-a][1,4]diazepin-6-yl]acetate] | 0.037
13 | 0.051 | COC(=O)C[C@@H]1N=C(c2ccc(-c3ccc(NCC(=O)N[C@H](C(=O)N4C[C@H](O)C[C@H]4C(=O)N[C@@H](C)c4ccc(-c5scnc5C)cc4)C(C)(C)C)cc3)cc2)c2c(sc(C)c2C)-n2c(C)nnc21 [Example 45, methyl [(6S)-4-(4′-{[2-({(2S)-1-[(2S,4R)-4-hydroxy-2-({(1S)-1-[4-(4-methyl-1,3-thiazol-5-yl)phenyl]ethyl}carbamoyl)pyrrolidin-1-yl]-3,3-dimethyl-1-oxobutan-2-yl}amino)-2-oxoethyl]amino}[1,1′-biphenyl]-4-yl)-2,3,9-trimethyl-6H-thieno[3,2-f][1,2,4]triazolo[4,3-a] [1,4]diazepin-6-yl]acetate] | 0.32
